The target in the test is Full length KDM2B (Homo sapiens (Human), UniProt Q8NHM5). The test can be described thus: KDM2B TR-FRET Assay for Determining Inhibitor IC50. Particulars: TR-FRET (HTRF), biotin-H3K36me2 peptide substrate. It is filed as biochemical. The text has this: KDM2B TR-FRET Assay for Determining Inhibitor IC50
The KDM2B TR-FRET Assay described above represents an additional embodiment of the invention.
Background: TR-FRET usually uses a lanthanide donor and a delayed reading to cut background.

Structures are written as SMILES. pIC50: −log10 of the molar value.

What is called pIC50 is the IC50 on a negative log10 scale, so that one unit is a factor of ten. Low readings indicate a high IC50, high ones a low IC50.

Chain of Full length KDM2B (Q8NHM5 whole entry): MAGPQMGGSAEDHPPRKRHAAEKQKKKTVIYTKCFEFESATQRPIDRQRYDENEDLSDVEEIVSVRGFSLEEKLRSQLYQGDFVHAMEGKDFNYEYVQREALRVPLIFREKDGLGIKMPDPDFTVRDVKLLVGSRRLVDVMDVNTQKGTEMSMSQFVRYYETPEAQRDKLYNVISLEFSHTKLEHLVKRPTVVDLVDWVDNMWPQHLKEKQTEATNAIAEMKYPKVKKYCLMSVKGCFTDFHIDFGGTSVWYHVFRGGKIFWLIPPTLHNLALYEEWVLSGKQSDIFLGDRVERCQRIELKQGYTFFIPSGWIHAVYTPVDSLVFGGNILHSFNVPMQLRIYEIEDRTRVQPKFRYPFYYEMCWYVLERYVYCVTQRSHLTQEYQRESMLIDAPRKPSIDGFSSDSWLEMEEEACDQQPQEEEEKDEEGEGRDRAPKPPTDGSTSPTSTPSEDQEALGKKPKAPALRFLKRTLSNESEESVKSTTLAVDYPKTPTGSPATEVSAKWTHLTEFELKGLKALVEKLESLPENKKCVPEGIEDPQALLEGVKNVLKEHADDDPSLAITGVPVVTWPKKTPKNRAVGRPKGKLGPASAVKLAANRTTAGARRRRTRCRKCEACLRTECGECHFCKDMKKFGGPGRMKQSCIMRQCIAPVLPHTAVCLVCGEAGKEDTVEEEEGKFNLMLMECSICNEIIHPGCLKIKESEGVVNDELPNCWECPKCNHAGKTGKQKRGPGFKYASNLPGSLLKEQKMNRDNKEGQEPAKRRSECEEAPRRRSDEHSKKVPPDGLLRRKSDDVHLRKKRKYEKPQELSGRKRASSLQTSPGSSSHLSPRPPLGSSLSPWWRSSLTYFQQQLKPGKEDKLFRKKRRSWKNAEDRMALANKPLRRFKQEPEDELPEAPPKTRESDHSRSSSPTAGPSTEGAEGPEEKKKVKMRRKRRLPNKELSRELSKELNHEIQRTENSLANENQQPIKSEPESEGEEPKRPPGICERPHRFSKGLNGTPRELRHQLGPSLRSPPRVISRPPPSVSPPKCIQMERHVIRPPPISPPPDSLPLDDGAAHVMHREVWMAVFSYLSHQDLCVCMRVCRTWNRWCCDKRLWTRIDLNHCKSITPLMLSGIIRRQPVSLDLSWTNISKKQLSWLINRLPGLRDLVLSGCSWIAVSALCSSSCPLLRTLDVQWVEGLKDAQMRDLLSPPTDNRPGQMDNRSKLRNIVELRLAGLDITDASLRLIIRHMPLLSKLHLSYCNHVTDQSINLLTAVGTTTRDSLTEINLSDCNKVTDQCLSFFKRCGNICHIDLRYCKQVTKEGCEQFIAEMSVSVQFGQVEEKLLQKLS

In turn, `CC(C)c1ccc(S(=O)(=O)N2C[C@@H](C)N=C2N2CCN(C3CCC3)CC2)cc1` [Example 46, (R)-1-cyclobutyl-4-[1-(4-isopropylphenyl)sulfonyl-4-methyl-4,5-dihydroimidazol-2-yl]piperazine] gave a negative logarithm of the IC50 (pIC50) of 10.27.

For the molecule `CC(C)c1ccc(S(=O)(=O)N2CC3(CCCC3)N=C2N2CCN(C3CCC3)CC2)cc1` [Example 45, 2-(4-cyclobutylpiperazin-1-yl)-3-(4-isopropylphenyl)sulfonyl-1,3-diazaspiro[4.4]non-1-ene], the pIC50 was 10.31.

In turn, `Cn1nccc1-c1ccc(S(=O)(=O)N2CCN=C2N2CCN(C3CCC3)CC2)cc1` [Example 29, 1-cyclobutyl-4-[1-[4-(2-methylpyrazol-3-yl)phenyl]sulfonyl-4,5-dihydroimidazol-2-yl]piperazine] had a pIC50 of 10.31.

Turning to `O=S(=O)(c1ccc(Cl)c(Cl)c1)N1CCN=C1N1CCN(C2CCC2)CC1` [Example 67, 1-cyclobutyl-4-[1-(3,4-dichlorophenyl)sulfonyl-4,5-dihydromidazol-2-yl]piperazine], the pIC50 was 9.87.

`O=S(=O)(c1ccc(-c2cccc(O)c2)cc1)N1CCN=C1N1CCN(C2CCC2)CC1` [Example 16, 3-[4-[[2-(4-cyclobutylpiperazin-1-yl)-4,5-dihydroimidazol-1-yl]sulfonyl]phenyl]phenol] had a pIC50 of 10.47.

Turning to `CCN1CCN(C2=NCCN2S(=O)(=O)c2ccc(Cl)cc2Cl)CC1` [Example 100, 1-[1-(2,4-dichlorophenyl)sulfonyl-4,5-dihydroimidazol-2-yl]-4-ethyl-piperazine], the negative logarithm of the IC50 (pIC50) is 8.55.

Regarding `O=S(=O)(c1ccc(-c2ccccc2O)cc1)N1CCN=C1N1CCN(C2CCC2)CC1` [Example 15, 2-[4-[[2-(4-cyclobutylpiperazin-1-yl)-4,5-dihydroimidazol-1-yl]sulfonyl]phenyl]phenol], the negative-log IC50 (pIC50) is 10.43.

The molecule `COc1ccc(C(=O)N2CCN=C2N2CCN(C3CCC3)CC2)cc1` [Example 89, [2-(4-cyclobutylpiperazin-1-yl)-4,5-dihydroimidazol-1-yl]-(4-methoxyphenyl)methanone] had a pIC50 of 8.36.

Take `CCN1CCN(C2=NCCN2S(=O)(=O)c2ccc(F)cc2F)CC1` [Example 109, 1-[1-(2,4-difluorophenyl)sulfonyl-4,5-dihydroimidazol-2-yl]-4-ethyl-piperazine]: the negative-log IC50 (pIC50) was 8.20.

Molecule `CCN1CCN(C2=NCCN2S(=O)(=O)c2ccc(-c3ccc(F)cc3)cc2)CC1` [Example 98, 1-ethyl-4-[1-[4-(4-fluorophenyl)phenyl]sulfonyl-4,5-dihydroimidazol-2-yl]piperazine] showed a pIC50 of 8.99.

In the case of `CC(C)c1ccc(S(=O)(=O)N2CCN=C2N2CCN(C3CCC3)C(C)C2)cc1` (stereo not drawn) [Example 37, 1-cyclobutyl-4-[1-(4-isopropylphenyl)sulfonyl-4,5-dihydroimidazol-2-yl]-2-methyl-piperazine], the negative logarithm of the IC50 (pIC50) is 9.16.

`O=S(=O)(c1ccc(-c2ccccc2F)cc1)N1CCN=C1N1CCN(C2CCC2)CC1` [Example 25, 1-cyclobutyl-4-[1-[4-(2-fluorophenyl)phenyl]sulfonyl-4,5-dihydroimidazol-2-yl]piperazine]: the negative-log IC50 (pIC50) was 10.34.

Turning to `O=S(=O)(c1ccc(-c2ccccn2)cc1)N1CCN=C1N1CCN(C2CCC2)CC1` [Example 6, 1-cyclobutyl-4-[1-[4-(2-pyridyl)phenyl]sulfonyl-4,5-dihydroimidazol-2-yl]piperazine], the pIC50 is 9.99.

`CCN1CCN(C2=NCCN2S(=O)(=O)c2cccc(Cl)c2)CC1` [Example 113, 1-[1-(3-chlorophenyl)sulfonyl-4,5-dihydroimidazol-2-yl]-4-ethyl-piperazine] gave a pIC50 of 8.04.

`O=S(=O)(c1ccc(-c2cccc(Cl)c2)cc1)N1CCN=C1N1CCN(C2CCC2)CC1` [Example 22, 1-[1-[4-(3-chlorophenyl)phenyl]sulfonyl-4,5-dihydroimidazol-2-yl]-4-cyclobutyl-piperazine]: the pIC50 was 9.92.
